Test results as given in patent US20240130994A1, “IONIC LIQUID FORMULATIONS FOR TREATING DIABETES” (i2O Therapeutics, Inc., priority 2020, published 2024).

Assay: Physical form of choline-based ionic liquids at room temperature
Type: physicochemical
Procedure: Several ionic liquids comprising choline as a cation and various anions were synthesized. […] For anions not miscible with the aqueous choline bicarbonate solution, a co-solvent, such as ethanol, was added until a homogenous mixture formed. The mixture was stirred at room temperature until CO2 evolution ceased. Solvent was removed by rotary evaporation at 60° C. for 20 minutes, and each product was dried in a vacuum oven for 48 hours at 60° C.

[1] = cation:anion 1:1, room temperature
[2] = cation:anion 1:2, room temperature
[3] = cation:anion 2:1, room temperature

In the case of CCCCC/C=C\C/C=C\C/C=C\C/C=C\CCCC(=O)O [Arachidonic Acid], the “Physical Form (Ratios Listed as Cation:Anion)” value [1] is reported as “Solid at 1:1”.
In the case of CCC/C=C/C(=O)O [Trans-2-Hexenoic Acid], the “Physical Form (Ratios Listed as Cation:Anion)” value [1] is reported as “Liquid at 1:1, 1:2” and the “Physical Form (Ratios Listed as Cation:Anion)” value [2] is reported as “Liquid at 1:1, 1:2”.
For O=C(O)CC(O)(CC(=O)O)C(=O)O [Citric Acid], the “Physical Form (Ratios Listed as Cation:Anion)” value [1] was “Solid”, the “Physical Form (Ratios Listed as Cation:Anion)” value [3] was “Liquid” and the “Physical Form (Ratios Listed as Cation:Anion)” value (cation:anion 3:1, room temperature) was “Liquid”. The “Physical Form (Ratios Listed as Cation:Anion)” value (cation:anion 4:1, room temperature) was “Liquid”.
In the case of O=C1CC[C@@H](C(=O)O)N1 [Pyroglutamic Acid], the “Physical Form (Ratios Listed as Cation:Anion)” value [1] is reported as “Solid” and the “Physical Form (Ratios Listed as Cation:Anion)” value [2] is reported as “Liquid”.
In the case of O=C(O)[C@H](O)[C@@H](O)[C@@H](O)[C@H](O)CO [D-(+)-Galactonic Acid], the “Physical Form (Ratios Listed as Cation:Anion)” value [1] is reported as “Solid at 1:1”.
In the case of O=C(O)CC(=O)O [Malonic Acid], the “Physical Form (Ratios Listed as Cation:Anion)” value [1] is reported as “Liquid at 1:1”.
With O=C(O)C(O)c1ccccc1 (stereo not shown) [Mandelic Acid] the “Physical Form (Ratios Listed as Cation:Anion)” value [1] was “Liquid at 1:1, 1:2” and the “Physical Form (Ratios Listed as Cation:Anion)” value [2] was “Liquid at 1:1, 1:2”.
With O=C(O)CCCC(=O)O [Glutaric Acid] the “Physical Form (Ratios Listed as Cation:Anion)” value [1] was “Liquid at 2:1, 1:1” and the “Physical Form (Ratios Listed as Cation:Anion)” value [3] was “Liquid at 2:1, 1:1”.
With O=C(O)CNC(=O)c1ccccc1O [2-Hydroxyhippuric Acid] the “Physical Form (Ratios Listed as Cation:Anion)” value [1] was “Solid at 1:1”.
In the case of O=C(O)CCCC[C@@H]1CCSS1 [(R)-α-Lipoic Acid], the “Physical Form (Ratios Listed as Cation:Anion)” value [1] is reported as “Solid at 2:1, 1:1, 1:2,”, the “Physical Form (Ratios Listed as Cation:Anion)” value [2] is reported as “Solid at 2:1, 1:1, 1:2,” and the “Physical Form (Ratios Listed as Cation:Anion)” value [3] is reported as “Solid at 2:1, 1:1, 1:2,”.
In the case of COc1cc(C(=O)O)ccc1O [Vanillic Acid], the “Physical Form (Ratios Listed as Cation:Anion)” value [1] is reported as “Solid at 1:1”.
In the case of C=C(C)[C@@H]1CC=C(C(=O)O)CC1 [Perillic Acid], the “Physical Form (Ratios Listed as Cation:Anion)” value [1] is reported as “Solid at 1:1”.
In the case of CCCCCCCCCCCC(=O)O [Lauric Acid], the “Physical Form (Ratios Listed as Cation:Anion)” value [1] is reported as “Solid at 1:1, 1:2” and the “Physical Form (Ratios Listed as Cation:Anion)” value [2] is reported as “Solid at 1:1, 1:2”.
For CCCC/C=C/CC(=O)O [Trans-3-Octenoic Acid], the “Physical Form (Ratios Listed as Cation:Anion)” value [1] was “Liquid at 1:1, 1:2” and the “Physical Form (Ratios Listed as Cation:Anion)” value [2] was “Liquid at 1:1, 1:2”.
With CC(C)C1=CC2=CC[C@@H]3[C@](C)(CCC[C@@]3(C)C(=O)O)[C@H]2CC1 [Abietic Acid] the “Physical Form (Ratios Listed as Cation:Anion)” value [1] was “Solid at 1:1”.
With CC(C)CCC(=O)O [4-Methylvaleric Acid] the “Physical Form (Ratios Listed as Cation:Anion)” value [2] was “Liquid at 1:2”.
In the case of Dihydrobenzoic Acid, the “Physical Form (Ratios Listed as Cation:Anion)” value [1] is reported as “Solid at 1:1”.
In the case of CC(O)C(=O)O (stereo not shown) [Lactic Acid], the “Physical Form (Ratios Listed as Cation:Anion)” value [1] is reported as “Liquid at 1:1, 1:2” and the “Physical Form (Ratios Listed as Cation:Anion)” value [2] is reported as “Liquid at 1:1, 1:2”.
For CCCCCCCCC(=O)O [Nonanoic Acid], the “Physical Form (Ratios Listed as Cation:Anion)” value [1] was “Solid at 1:1, 1:2” and the “Physical Form (Ratios Listed as Cation:Anion)” value [2] was “Solid at 1:1, 1:2”.
In the case of O=C(O)/C=C/C(=O)O [Fumaric Acid], the “Physical Form (Ratios Listed as Cation:Anion)” value [1] is reported as “Solid” and the “Physical Form (Ratios Listed as Cation:Anion)” value [3] is reported as “Liquid”.
With CC(=O)C(=O)O [Pyruvic Acid] the “Physical Form (Ratios Listed as Cation:Anion)” value [1] was “Liquid at 1:1, 1:2” and the “Physical Form (Ratios Listed as Cation:Anion)” value [2] was “Liquid at 1:1, 1:2”.
In the case of Cc1ccc(S(=O)(=O)O)cc1 [p-Toluenesulfonic Acid], the “Physical Form (Ratios Listed as Cation:Anion)” value [1] is reported as “Solid” and the “Physical Form (Ratios Listed as Cation:Anion)” value [2] is reported as “Liquid”.
For CCCCC(C)CCC(=O)O (stereo not shown) [4-Methyloctanoic Acid], the “Physical Form (Ratios Listed as Cation:Anion)” value [1] was “Liquid” and the “Physical Form (Ratios Listed as Cation:Anion)” value [2] was “Solid”.
With CCCCCCCCC(CCCCCC)C(=O)O (stereo not shown) [2-Hexyldecanoic Acid] the “Physical Form (Ratios Listed as Cation:Anion)” value [1] was “Liquid at 1:1”.
For O=C(O)/C=C\C(=O)O [Maleic Acid], the “Physical Form (Ratios Listed as Cation:Anion)” value [1] was “Liquid at 2:1, 1:1” and the “Physical Form (Ratios Listed as Cation:Anion)” value [3] was “Liquid at 2:1, 1:1”.
With O=C(O)CC(O)C(=O)O (stereo not shown) [Malic Acid] the “Physical Form (Ratios Listed as Cation:Anion)” value [1] was “Liquid at 2:1, 1:1” and the “Physical Form (Ratios Listed as Cation:Anion)” value [3] was “Liquid at 2:1, 1:1”.
In the case of CCCCCCCCCC(=O)O [Decanoic Acid], the “Physical Form (Ratios Listed as Cation:Anion)” value [1] is reported as “Solid”, the “Physical Form (Ratios Listed as Cation:Anion)” value (cation:anion 1:1, room temperature, listed as decanoic acid) is reported as “solid” and the “Physical Form (Ratios Listed as Cation:Anion)” value [2] is reported as “Solid”. The “Physical Form (Ratios Listed as Cation:Anion)” value (cation:anion 1:2, room temperature, listed as decanoic acid) was “solid”, the “Physical Form (Ratios Listed as Cation:Anion)” value [3] was “Liquid” and the “Physical Form (Ratios Listed as Cation:Anion)” value (cation:anion 2:1, room temperature, listed as decanoic acid) was “liquid”. For the same compound, the “appearance and physical form” value (room temperature, ratio as in label) was “waxy solid”.
With C/C=C/C=C/C(=O)O [Sorbic Acid] the “Physical Form (Ratios Listed as Cation:Anion)” value [1] was “Liquid at 1:1, 1:2” and the “Physical Form (Ratios Listed as Cation:Anion)” value [2] was “Liquid at 1:1, 1:2”.
In the case of CCCCCCC/C=C/C(=O)O [Trans-2-Decenoic Acid], the “Physical Form (Ratios Listed as Cation:Anion)” value [1] is reported as “Solid at 1:1, 1:2” and the “Physical Form (Ratios Listed as Cation:Anion)” value [2] is reported as “Solid at 1:1, 1:2”.
For COc1cc(/C=C/C(=O)O)ccc1O [Trans-Ferulic Acid], the “Physical Form (Ratios Listed as Cation:Anion)” value [1] was “Solid at 1:1”.
In the case of CC(=O)CCC(=O)O [Levulinic Acid], the “Physical Form (Ratios Listed as Cation:Anion)” value [1] is reported as “Liquid at 1:1, 1:2” and the “Physical Form (Ratios Listed as Cation:Anion)” value [2] is reported as “Liquid at 1:1, 1:2”.
For CCCCCCCC/C=C\CCCCCCCC(=O)O [Oleic Acid], the “Physical Form (Ratios Listed as Cation:Anion)” value [1] was “Solid at 1:1, 1:2” and the “Physical Form (Ratios Listed as Cation:Anion)” value [2] was “Solid at 1:1, 1:2”.
With CC/C=C\C/C=C\C/C=C\C/C=C\C/C=C\CCCC(=O)O [Eicosapentanoic Acid (EPA)] the “Physical Form (Ratios Listed as Cation:Anion)” value [1] was “Solid at 1:1”.
In the case of C/C(=C\C(=O)O)C(=O)O [Mesaconic Acid], the “Physical Form (Ratios Listed as Cation:Anion)” value [1] is reported as “Solid” and the “Physical Form (Ratios Listed as Cation:Anion)” value [3] is reported as “Liquid”.
With N[C@@H](CCC(=O)N[C@@H](CS)C(=O)NCC(=O)O)C(=O)O [L-Glutathione reduced] the “Physical Form (Ratios Listed as Cation:Anion)” value [3] was “Solid at 2:1”.
In the case of CC(C)CCCC(C)CC(=O)O (stereo not shown) [3,7-Dimethyloctanoic Acid], the “Physical Form (Ratios Listed as Cation:Anion)” value [1] is reported as “Solid at 1:1, 1:2” and the “Physical Form (Ratios Listed as Cation:Anion)” value [2] is reported as “Solid at 1:1, 1:2”.
In the case of COc1cc(C(=O)O)cc(OC)c1O [Syringic Acid], the “Physical Form (Ratios Listed as Cation:Anion)” value [1] is reported as “Solid at 1:1”.
With CCCCCC(=O)O [Hexanoic Acid] the “Physical Form (Ratios Listed as Cation:Anion)” value [1] was “Liquid at 1:1, 1:2” and the “Physical Form (Ratios Listed as Cation:Anion)” value [2] was “Liquid at 1:1, 1:2”.
With O=c1oc2c(O)c(O)cc3c(=O)oc4c(O)c(O)cc1c4c23 [Ellagic Acid] the “Physical Form (Ratios Listed as Cation:Anion)” value [1] was “Solid at 1:1”.
For C/C=C/C(=O)O [Crotonic Acid], the “Physical Form (Ratios Listed as Cation:Anion)” value [1] was “Liquid at 1:1, 1:2” and the “Physical Form (Ratios Listed as Cation:Anion)” value [2] was “Liquid at 1:1, 1:2”.
For CC(CCC(C(=O)O)C(C)CC(C)(C)C)CC(C)(C)C (stereo not shown) [2-(4,4-Dimethyl-2-pentanyl)-5,7,7-trimethyloctanoic Acid], the “Physical Form (Ratios Listed as Cation:Anion)” value [1] was “Solid at 1:1”.
In the case of CCC(C)CCC(=O)O (stereo not shown) [4-Methylhexanoic Acid], the “Physical Form (Ratios Listed as Cation:Anion)” value [1] is reported as “Liquid at 1:1, 1:2” and the “Physical Form (Ratios Listed as Cation:Anion)” value [2] is reported as “Liquid at 1:1, 1:2”.
With CCCCCC[C@@H](O)C/C=C\CCCCCCCC(=O)O [Ricinoleic Acid] the “Physical Form (Ratios Listed as Cation:Anion)” value [1] was “Liquid at 1:1, 1:2” and the “Physical Form (Ratios Listed as Cation:Anion)” value [2] was “Liquid at 1:1, 1:2”.
For O=P(O)(O)O [Phosphoric Acid], the “Physical Form (Ratios Listed as Cation:Anion)” value [1] was “Solid”, the “Physical Form (Ratios Listed as Cation:Anion)” value [2] was “Liquid” and the “Physical Form (Ratios Listed as Cation:Anion)” value [3] was “Liquid”.
With CC(C)Cc1ccc(C(C)C(=O)O)cc1 (stereo not shown) [2-(4-Isobutylphenyl)propionic Acid] the “Physical Form (Ratios Listed as Cation:Anion)” value [1] was “Solid at 1:1”.
For O=C(O)CCC(=O)O [Succinic Acid], the “Physical Form (Ratios Listed as Cation:Anion)” value [1] was “Liquid at 2:1, 1:1, 1:2”, the “Physical Form (Ratios Listed as Cation:Anion)” value [2] was “Liquid at 2:1, 1:1, 1:2” and the “Physical Form (Ratios Listed as Cation:Anion)” value [3] was “Liquid at 2:1, 1:1, 1:2”.
